These results are taken from PMC5571359, “Screening the Medicines for Malaria Venture Pathogen Box across Multiple Pathogens Reclassifies Starting Points for Open-Source Drug Discovery” (Antimicrobial Agents and Chemotherapy, 2017).

What is called IC50 is the concentration at which inhibition is half-maximal. The term inhibition denotes how much of the control response was suppressed.

Read-outs that look alike come from different tables or passages of the source.

The test system of one series is 3T3 host cells. Nature of the series: T. cruzi assay, activity against 3T3 host cells. As to conditions: reference compound set; IA = inactive at 16.4 μM. The class given is cell-based. Summed up: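 3T3 cells were seeded on collagen-coated plates, incubated 24 h at 37 °C, infected with T. cruzi at MOI 5:1, and washed free of extracellular parasites after a further 24 h. Following 48 h compound exposure, cells were fixed, stained with Hoechst 33342 and HCS CellMask Green, and imaged by high-content analysis.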

Series [1] has as its system Plasmodium falciparum 3D7 asexual blood stage. Nature of the series: microbe, parasite or virus in culture. As to conditions: 3D7, read-out: IC50 P. falciparum 3D7 ABS.
A short description of a further series: in vitro. Conditions: human.
For series [2], the system named is NF54-pfs16-LUC-GFP stage IV gametocytes. Nature of the series: Plasmodium falciparum late stage gametocyte (LSG) image-based assay. The class given is cell-based. Conditions: Plasmodium falciparum, NF54, read-out: percent inhibition at the top screening dose, P. falciparum NF54 LSG.
The test system of series [3] is T. b. brucei 427 bloodstream trypanosomes. Briefly: T. b. brucei resazurin viability assay. The class given is cell-based, Trypanosoma brucei brucei. Conditions: Trypanosoma brucei; reference compound set; IA = inactive at 20 μM; read-out: IC50 T. brucei brucei trypomastigotes.
In series [4] the test system is L. donovani MHOM/IN/80/DD8 intracellular amastigotes. Briefly: Leishmania donovani intracellular amastigote assay in THP-1 cells. The class given is cell-based. Conditions: Leishmania donovani, reference compound set, IA = inactive at 20 μM.
The subject of series [5] is T. cruzi intracellular amastigotes. Briefly: Intracellular anti-Trypanosoma cruzi image-based assay (amastigotes). Conditions: Trypanosoma cruzi; reference compound set; IA = inactive at 16.4 μM; read-out: IC50 T. cruzi intracellular amastigotes. The class given is cell-based.

Turning to `CO[C@H]1/C=C/O[C@@]2(C)Oc3c(C)c(O)c4c(O)c(c(/C=N/N5CCN(C)CC5)c(O)c4c3C2=O)NC(=O)/C(C)=C\C=C\[C@H](C)[C@H](O)[C@@H](C)[C@@H](O)[C@@H](C)[C@H](OC(C)=O)[C@@H]1C` [Rifampin, reference compound], the half-inhibitory concentration (IC50) in the series on 3T3 host cells was greater than 16.4 µM; in series [1] it was 2.23 µM; in series [3], greater than 20 µM; in series [4] (THP-1, read-out: IC50 L. donovani n = 1, first test) it was greater than 20 µM; in series [4] (THP-1, read-out: IC50 L. donovani n = 2, second test), greater than 20 µM; in series [5] it was greater than 16.4 µM. In “in vitro”, this compound gave an IC50 at 72 h greater than 20 µM. The inhibition at 20 µM in series [2] is 78%.
